Measured values taken from patent US20040029938A1, “Medicaments” (priority 2000, published 2004).

System: inducible nitric oxide synthase (INOS)
Assay: LPS-induced INOS activity in J774 cells (DAF-2 fluorescence)
Format: cell-based, mouse
Conditions: pre-treatment 6 hours before and 24 hours after LPS (1 μg/ml), sub-nanomolar-nanomolar concentrations, FIG. 1
Protocol: In this assay system, lipopolysaccharide (LPS) was used to induce the expression of INOS in the mouse macrophage cell line, J774. […] This reduction in INOS activity correlated with a reduction in LPS-induced INOS mRNA expression.
Specifically, LPS-induced INOS activity was measured using the following assay conditions. J774 cells were seeded at a density of […] per well, in a black, clear-bottomed, 96 well plate, 24hours prior to use. The cell culture and the drug dilutions were carried out in complete media, which consisted of DMEM (Dulbecco's modification of Eagle's medium) containing foetal calf serum (10%), glutamine (2 mM), penicillin (100 μ/ml) and streptomycin (100 μg/ml). The J774 cells were pre-treated with the PPAR delta activators A and B, or vehicle, for 6 hours prior to, and for 24 hours subsequent to the addition of LPS (typically, a concentration of 1 μg/ml of LPS was used). Twenty-four hours after the addition of LPS, INOS activity was measured by the following method. […] After incubation at 37° C. for 3 hours, fluorescence from each well was measured at an excitation wavelength of 485 nm, and an emission wavelength of 530 nm. […]
LPS to induce INOS activity, in the presence and absence of PPAR delta activators, was then calculated. […]

SMILES	inhibition of LPS-induced INOS activity
Cc1cc(SCc2sc(-c3ccc(C(F)(F)F)cc3)nc2C)ccc1OCC(=O)O [Compound A, 2-{2-methyl-4-[({4-methyl-2-[4-(trifluoromethyl)phenyl]-1,3-thiazol-5-yl}methyl)sulfanyl]phenoxy}acetic acid]	marked inhibition
Cc1cc(SCc2sc(-c3ccc(C(F)(F)F)c(F)c3)nc2C)ccc1OCC(=O)O [Compound B, 2-{2-methyl-4-[({4-methyl-2-[3-fluoro-4-(trifluoromethyl)phenyl]-1,3-thiazol-5-yl}methyl)sulfanyl]phenoxy}acetic acid]	marked inhibition
